From PubChem BioAssay (NCI) come the findings set out here.

SMILES strings stand for the structures. Where “and” joins values, the source holds several entries; their conditions need not be identical. Equal values may be shown once.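 All cell lines were grown in 96-well plates and treated with compound for 48 hours. GI50 = concentration required for 50% inhibition of growth. The concentration for full growth arrest is given as TGI.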

Assay in all cases: DTP human tumour cell line panel, 48 h
Assay [1] relates to 786-0 renal.
Assay [2] relates to A549 NSCLC.
In assay [3] the test system is HOP-92 NSCLC.
Assay [4] has as its system K-562 leukemia.
In assay [5] the test system is OVCAR-3 ovarian.
Assay [6] has as its system SK-MEL-2 melanoma.
Assay [7] concerns T-47D breast.

In the case of `Cc1ccc2c(C)c3c(ccc4ccccc43)c[n+]2c1`, the GI50 (commonly the concentration giving 50% growth inhibition) is 20100 nM in assay [1]; 3.85 µM in assay [2]; 6280 nM in assay [3]; 9300 nM in assay [4]; 2640 nM in assay [5]; 15.4 µM in assay [6]. Besides, in assay [7], the GI50 was 1.73 µM. The TGI – broadly, the concentration giving total growth inhibition – is more than 100 µM in assay [1]; more than 100 µM in assay [2]; 35.2 µM in assay [3]; 47.3 µM in assay [4]; 16.8 µM in assay [5]; 33.6 µM in assay [6]. In assay [7], the TGI came to 7.18 µM.
Turning to `Cc1ccc(CN2CCC(C(=O)Nc3ccc(-c4cc5ccccc5[nH]4)cc3)CC2)o1`, the GI50 in assay [1] was 98900 nM; in assay [2], more than 100 µM; in assay [3], 2710 nM; in assay [4] it was more than 100000 nM; in assay [5], more than 100000 nM; in assay [6] it was more than 100 µM. In addition, the GI50 in assay [7] is more than 100 µM. The TGI in assay [1], in assay [2], in assay [3], in assay [4], in assay [5] and in assay [6] was more than 100 µM in each case. This molecule also showed a TGI in assay [7] of more than 100 µM.
As to `CC1CCc2nc[nH]c(=O)c21` (stereo not drawn), the GI50 in assay [1] was more than 100000 nM; in assay [2], more than 100 µM; in assay [3], more than 100000 nM; in assay [4], more than 100000 nM; in assay [5], more than 100000 nM; in assay [6] it was more than 100 µM. The GI50 in assay [7] was more than 100 µM. Moreover, the TGI in assay [1], in assay [2], in assay [3], in assay [4], in assay [5] and in assay [6] was more than 100 µM throughout. In addition, the TGI in assay [7] was more than 100 µM.
Consider `Cc1ccnc2c1ccc1c(C)ccnc12`, for which the GI50 in assay [1] was 327 nM; in assay [2], 0.386 µM; in assay [3] it was 656 nM; in assay [4], 395 nM; in assay [5], 526 nM; in assay [6], 0.504 µM. In assay [7], the GI50 is 0.883 µM. Moreover, the TGI in assay [1] is 10.9 µM; in assay [2] it was 11.4 µM; in assay [3], 16.1 µM; in assay [4], 25.9 µM; in assay [5] it was 11.4 µM; in assay [6], 18.3 µM. Further, the TGI in assay [7] came out at 12.6 µM.
Turning to `C[C@@H](Oc1cc(-n2cnc3ccc(CN4CCN(C)CC4)cc32)sc1C(N)=O)c1ccccc1C(F)(F)F`, the GI50 in assay [1] is 43.9 nM and 85.4 nM; in assay [2], 0.0211 µM and 0.0306 µM; in assay [3], 34.2 nM and 191 nM; in assay [4], 3.17 nM; in assay [5] it was < 15.2 nM and 5.28 nM; in assay [7], 3.35 µM. In addition, the TGI in assay [1] is 2.04 µM and > 7.11 µM; in assay [2] it was 10.8 µM and > 10 µM; in assay [3], 0.947 µM and > 3.14 µM; in assay [5], 16.7 µM and > 10 µM; in assay [6], more than 10 µM; in assay [7], 21.4 µM and > 10 µM.
Regarding `O=C1CC(NC(=O)C(F)(F)F)c2c(Br)sc(N3CCNCC3)c21` (stereo not drawn), the TGI in assay [1], in assay [2], in assay [3], in assay [4], in assay [5] and in assay [6] was more than 100 µM throughout. In addition, the concentration for total growth inhibition (TGI) in assay [7] is more than 100 µM.
As to `O=C(Nc1ccc(-n2ccc3c(NC(=O)c4ccccc4)nccc32)cc1)c1ccc(Cl)c(C(F)(F)F)c1`, the GI50 was 606 nM in assay [1]; 0.318 µM in assay [2]; 3420 nM in assay [3]; 213 nM in assay [4]; 1350 nM in assay [5]; 6.16 µM in assay [6]. The GI50 in assay [7] is 6.2 µM. Further, the TGI in assay [1] is 9.93 µM; in assay [2], 8.45 µM; in assay [3], more than 42.2 µM; in assay [4], more than 17.2 µM; in assay [5], 10 µM; in assay [6] it was 31.6 µM. This molecule also had a TGI in assay [7] of 20.4 µM.
In the case of `COc1ccc(CC2c3cc4c(cc3CCN2C)OCO4)c(C=O)c1OC` (stereo not drawn), the TGI in assay [1], in assay [2], in assay [3], in assay [4], in assay [5] and in assay [6] was more than 100 µM each time. For the same molecule, in assay [7], the TGI was more than 100 µM.
Take `CCOC1Oc2ccccc2C(=O)/C1=C/Nc1ccc(C(C)=O)cc1` (stereo not drawn): the GI50 was 6560 nM in assay [1]; 50.3 µM in assay [2]; 25600 nM in assay [3]; 16100 nM in assay [4]; 17200 nM in assay [5]; 40.1 µM in assay [6]. Also, the GI50 in assay [7] was 62.7 µM. For the same molecule, the TGI was 25.4 µM in assay [1]; more than 100 µM in assay [2]; more than 100 µM in assay [3]; 40.5 µM in assay [4]; 43.8 µM in assay [5]; more than 100 µM in assay [6]. The TGI in assay [7] was more than 100 µM.
As to `CN(C)c1ccc(/C=C\C2=[N+](C)c3ccccc3C2(C)C)cc1`, the GI50 in assay [1] is 2480 nM; in assay [2], 1.06 µM; in assay [3], 890 nM; in assay [4] it was 1770 nM; in assay [5] it was 342 nM; in assay [6], 1.31 µM. For the same molecule, in assay [7], the GI50 was 0.634 µM. Besides, the TGI in assay [1] is more than 41.2 µM; in assay [2], more than 62 µM; in assay [3] it was more than 22.8 µM; in assay [4], more than 100 µM; in assay [5], 4.38 µM; in assay [6] it was 43.2 µM. This molecule also gave a TGI in assay [7] of more than 33.2 µM.
On to `O=C(Nc1ccc(F)cc1)Nc1ccc(Cl)c([N+](=O)[O-])c1`, for which the GI50 in assay [1] is 3370 nM; in assay [2] it was 3.09 µM; in assay [3], 2030 nM; in assay [4] it was 3200 nM; in assay [5], 3810 nM; in assay [6], 2.32 µM. Moreover, in assay [7], the GI50 is 2.18 µM. Further, the TGI is 13.2 µM in assay [1]; 16.3 µM in assay [2]; 6.12 µM in assay [3]; more than 100 µM in assay [4]; 19.1 µM in assay [5]; 5.83 µM in assay [6]. The molecule also had a concentration for total growth inhibition (TGI) in assay [7] of 9.67 µM.
As for `Nc1ccccc1C#C/C=C\C#Cc1ccccc1OC(F)(F)F`, the GI50 in assay [1] was 5480 nM; in assay [2] it was 5.99 µM; in assay [3], 9570 nM; in assay [4], 2310 nM; in assay [5], 3490 nM; in assay [6] it was 6.38 µM. For the same molecule, in assay [7], the GI50 is 4.19 µM. Also, the TGI is 21 µM in assay [1]; more than 100 µM in assay [2]; 26.4 µM in assay [3]; more than 100 µM in assay [4]; 20.5 µM in assay [5]; 29 µM in assay [6]. In assay [7], this molecule had a TGI of 74.1 µM.
On to `CC(=O)OC1OC([C@@H]2c3cccc(O)c3C(=O)c3c(O)cc(C)cc32)C(O)C(O)C1O` (stereo partly drawn), for which the 50% growth inhibitory concentration (GI50) in assay [1] was 130 nM; in assay [2], 0.109 µM; in assay [3] it was 23.3 nM; in assay [4], 21.6 nM; in assay [5] it was less than 18 nM; in assay [6], 0.162 µM. For the same molecule, the GI50 in assay [7] was 0.306 µM. Also, the TGI in assay [1] is 1.27 µM; in assay [2], 1.94 µM; in assay [3], 0.0717 µM; in assay [4], 1.39 µM; in assay [5], 0.0485 µM; in assay [6], 2.14 µM. The TGI in assay [7] was 0.87 µM.
Regarding `OCCN(CCO)c1ncnc2c1ncn2Cc1ccc(CCl)cc1`, the GI50 is 20400 nM in assay [1]; 18.3 µM in assay [2]; 16400 nM in assay [3]; 17700 nM in assay [4]; 19400 nM in assay [5]; 16.5 µM in assay [6]. Further, the GI50 in assay [7] was 19.4 µM. Besides, the TGI in assay [1] was 37.8 µM; in assay [2] it was 53.7 µM; in assay [3], 31.7 µM; in assay [4] it was more than 100 µM; in assay [5], 34.9 µM; in assay [6] it was 41.1 µM. The TGI in assay [7] is 36.5 µM.
For the molecule `Cc1ccc(NC(=O)Nc2ccc(-c3cccnc3)cc2N2CCC(CO)CC2)cc1`, the GI50 is 2580 nM in assay [1]; 3.18 µM in assay [2]; 2500 nM in assay [3]; 2190 nM in assay [4]; 1670 nM in assay [5]; 2.24 µM in assay [6]. Besides, the GI50 in assay [7] was 3.9 µM. The TGI in assay [1] was 7.25 µM; in assay [2], more than 100 µM; in assay [3], 6.42 µM; in assay [4], more than 100 µM; in assay [5] it was 5.23 µM; in assay [6], 8.38 µM. In assay [7], this molecule registered a TGI of more than 100 µM.
`O=[N+]([O-])c1cccc(-c2csc(NNC3=NC/C(=C/c4ccc5c(c4)OCO5)S3)n2)c1`: the TGI in assay [1] is more than 100 µM; in assay [2] it was more than 100 µM; in assay [3], 43.7 µM; in assay [4] it was more than 100 µM; in assay [5] it was more than 100 µM; in assay [6], 56.5 µM. For the same molecule, in assay [7], the TGI was more than 100 µM.
`CO/C(=N\N=C\c1ccc(C(F)(F)F)cc1)c1ccncc1`: the TGI in assay [1], in assay [2], in assay [3], in assay [4], in assay [5] and in assay [6] was more than 10 µM each time. The molecule further displayed a concentration for total growth inhibition (TGI) in assay [7] of more than 10 µM.
